Data: publication PMC7278776, “Multidrug Resistance Modulation Activity of Silybin Derivatives and Their Anti-Inflammatory Potential” (Antioxidants, 2020)

Key:
[1] = parameters: method as in PMID 15465345, PMID 19138735; details: cited from earlier work
[2] = tested on: ABCB1 (P-gp); assay: ABCB1 mRNA expression (real-time PCR); assay type: cell-based, human; details: 10 µM, 48 h, without doxorubicin
Experimental: (§1) The A2780/DOX cell line was seeded into 5 cm Petri dishes with DMEM medium at 1 × 10^5 cell/mL. […] After 48 h of treatment, the cells were washed with PBS and harvested using the standard trypsin-EDTA procedure. The harvested cells were centrifuged (3200× g; 10 min, 4 °C). The supernatant was discarded, and the pellets were washed with 1.5 mL of cooled PBS (5400× g; 10 min, 4 °C). The washing step was repeated with 1 mL of PBS and the cells were centrifuged again (10,000× g; 3 min, 4 °C). Afterwards, the pellets were resuspended in 1 mL of Trizol (Invitrogen, Carlsbad, CA, USA) and transferred into pre-cooled RNase-free microfuge tubes. The samples were stored at −80 °C.
A Quant-iT RiboGreen RNA Assay Kit (Invitrogen) was used to determine the RNA concentration using the Infinite M200 plate reader (Tecan, Männedor, Switzerland). The cDNA was prepared from 0.5 µg of total RNA using a RevertAid First Strand Synthesis cDNA Kit (MBI Fermentas, Vilnius, Lithuania). The amplification of the ubiquitin C gene fragment was used to determine the quality of cDNA.
The experiment was performed using the ViiA7 Real-Time polymerase chain reaction (PCR) System (Life Technologies, Camarillo, CA, USA) with a 384-well block. Before quantitative real-time PCR, the master mix was prepared by mixing 2 µL of 8 × diluted cDNA, 1.75 µL of RNase free water, 1 µL of 5 × HotFIREPol Probe quantitative PCR Mix Plus (Solis Biodyne, Tartu, Estonia) and 0.25 µL of specific 20 × TaqMan Gene Expression Assay (Life Technologies), giving 5 µL of final reaction volume. […] After each extension phase, the fluorescence values were acquired. Duplicate samples were used for measurement and samples with a standard deviation of duplicates > 1.0 cycle threshold (Ct) were re-analyzed. The real time PCR procedure was maintained according to MIQE (Minimum information for publication of quantitative real-time PCR experiments) guidelines. […]

[3] = tested on: ABCB3; assay: ABCB3 mRNA expression (real-time PCR); assay type: cell-based, human; details: A2780/DOX, 10 µM, 48 h, without doxorubicin
Experimental: as §1
A Quant-iT RiboGreen RNA Assay Kit (Invitrogen) was used to determine the RNA concentration using the Infinite M200 plate reader (Tecan, Männedor, Switzerland). […]
The experiment was performed using the ViiA7 Real-Time polymerase chain reaction (PCR) System (Life Technologies, Camarillo, CA, USA) with a 384-well block. Before quantitative real-time PCR, the master mix was prepared by mixing 2 µL of 8 × diluted cDNA, 1.75 µL of RNase free water, 1 µL of 5 × HotFIREPol Probe quantitative PCR Mix Plus (Solis Biodyne, Tartu, Estonia) and 0.25 µL of specific 20 × TaqMan Gene Expression Assay (Life Technologies), giving 5 µL of final reaction volume. […] After each extension phase, the fluorescence values were acquired. […]

Structure (SMILES) | radical scavenging compared to silybin [1] [fold] | downregulation of ABCB1 (P-gp) expression [2] [%] | ABCB1 Expression Difference ([2]; A2780/DOX) | ABCB1 Treated vs. Untreated ([2]; A2780/DOX) | ABCB3 Expression Difference [3] | ABCB3 Treated vs. Untreated [3]
COc1cc(C2Oc3cc(-c4oc5cc(O)cc(O)c5c(=O)c4O)ccc3OC2CO)ccc1O (stereo not drawn) [Dehydrosilybin AB, 2,3-dehydrosilybin] | 25 | – | – | – | – | –
COc1cc([C@@H]2Oc3cc([C@H]4Oc5cc(O)cc(O)c5C(=O)[C@@H]4O)ccc3O[C@H]2CO)ccc1O [Silybin B, silybin B] | – | 79 | 0.208 | DOWN | 0.365 | DOWN
